Several values for one entry are separate records, joined by “and”; a condition that tells them apart may be missing. Equal values may be shown once.
What was measured:
tomato plants = experiment: Root mass of tomato plants in the infectivity assays; assay type: in vivo, Solanum lycopersicum; details: 45 μM
Experimental: (§1) An M. incognita population originally collected from grape (Vitis vinifera) in Parlier, Calif., was used for all experiments, and they were maintained on tomato plants (Solanum lycopersicum ‘Rutgers’) as previously described^73. Infective J2 juveniles were collected as described in^73. For the infectivity assays, 90 grams of soil (1:1 sand:loam mix) was added to each cell of several 6-cell plastic garden packs. The soil was drenched with 18 mL of deionized water containing dissolved chemical or DMSO alone. 2,500 infective J2 juveniles were then added to the soil in 2 mL of deionized water, for a total water volume of 20 mL. The final concentration of the chemicals in water was 45 μM. The DMSO concentration varied from 0.1% to 0.8% (v/v) depending on the stock concentration of the chemical. The highest DMSO concentration was used as the DMSO control. The J2s were incubated in the soil and chemical for 24 hours, after which two- to three-week old tomato seedlings were transplanted into the soil (one plant per cell). Two replicates were performed for each chemical treatment, and four replicates were done for the DMSO controls. The whole experiment was replicated twice, in two different batches on two different days, for a total of four replicates for each chemical treatment, and eight replicates for the DMSO controls. Inoculated plants were grown for 8 weeks in a greenhouse, as described^73, under long-day conditions (16-h photoperiod) with 26/18° C. day/night temperatures. After 8 weeks, the plants were destructively harvested. The tops were removed and discarded, and roots were gently washed with water to remove adhering soil. Eggs were extracted by placing rinsed roots in 0.6% sodium hypochlorite and agitating at 300 rpm for 3 min. Roots were then rinsed over nested 250- and 25.4-μm sieves, with eggs collected from the latter and suspended in water. Roots were dried in a 65° C. oven for at least 24 hours, after which dry roots were weighed. The number of eggs from each plant root was counted on a dissection microscope using a haemocytometer, and the number of eggs per milligram of root was calculated by dividing the total egg number by the mass of the dried root material. An average was taken across the replicates performed on the same day, and then normalized to the DMSO control average. To calculate percent effectiveness at inhibiting reproduction, the normalized values were subtracted from 1, and then multiplied by 100. An average percent effectiveness value was then calculated across the two different batches carried out on different days.

M. incognita = experiment: Meloidogyne incognita infectivity assays (tomato roots in soil); assay type: in vivo; details: 45 μM in soil, 8 weeks, eggs per mg root relative to DMSO control
Experimental: as §1

C. elegans [1] = experiment: C. elegans minimum lethal concentration dose-response; assay type: in vivo, Caenorhabditis elegans; details: for minimal effective concentration: Caenorhabditis elegans, C. elegans viability
Experimental: (§2) Forty microliters of an HB101 bacterial suspension in liquid NGM (see above) was added to each well of a 96-well flat-bottom culture plate, after which approximately 25 synchronized L1 worms, in 10 μl of M9 buffer (see ref. 59 for the recipe), were added to each well. The synchronized L1 worms were obtained from an embryo preparation performed the previous day (see ref. 59 for the protocol). For the L1 assays, 0.5 μl of chemical solution (or DMSO alone) was immediately added to the wells using a multichannel pipette, the final DMSO concentration is 1% (v/v). The worms were incubated for 3 days at 20° C. and the number of viable animals was counted. […] Although the counts were performed after 3 days of incubation in the chemical, it was noted that the L1s were dead within 24 hours of the addition of the chemicals. For the L2/L3 assays, the worms were incubated in the absence of chemical for 1 day at 20° C. until they reached the L2/L3 stage, at which point chemical was added as described above. The worms were then allowed to incubate for 2 days at 20° C. and the number of viable animals was counted as described for the L1 assay. For the L4 assays, the worms were incubated for 2 days at 20° C. before the addition of chemicals. The L4-stage worms were then incubated in chemical for an additional day before quantifying the number of viable animals. The adult assays were performed the same way as the L4 assays, however HT115 E. coli carrying the empty dsRNA expressing vector L4440 was used in place of HB101 and the worms were cultured at 25° C. as opposed to 20° C. for the entirety of the experiment. The HT115 suspension was made by concentrating a bacterial culture, with an OD600 of ˜ 0.8, five-fold with liquid NGM containing 1 mM IPTG and 100 μg/ml carbenicillin. The HT115 cells were induced with 1 mM IPTG for one hour before concentrating with NGM.
Compounds Ia to Im, dose-response assays were performed with C. elegans. 8 of the compounds killed C. elegans with minimum lethal concentrations less than or equal to 100 μM (Table 6). Compounds Ia, Ic, and Ij were the most potently lethal nematicides in this assay, having minimum lethal concentrations of 6.25 μM and below. The positive control nematicide tioxazafen killed nematodes at 3.13 μM and above.

HepG2 cells = experiment: HepG2 cell proliferation assay; assay type: cell-based, human; details: for IC50: Alamar Blue
Experimental: HepG2 cells, which are liver-derived, were counted using a haemocytometer, diluted, and seeded in […] to a final density of 5×10^4 cells/mL in 100 uL of RPMI-1640 medium supplemented with 10% heat inactivated fetal bovine serum (Gibco) and 1.2×Antibiotic-Antimycotic (Gibco). Cells were incubated at 37° C. with 5% CO2 for 24 hours. Subsequently, a 2-fold dilution series of test compound was added to cells at a final volume of 200 uL and incubated at 37° C. with 5% CO2 for 72 hours. After 72 hours, Alamar Blue (Invitrogen) was added to the Hep G2 cells at a final concentration of 0.5× and plates were incubated at 37° C. for 4 hours. Fluorescence was measured at Ex560 nm/Em590 nm and corrected for background from the medium. All assays were performed in technical triplicates and in at least two biological replicates. The IC50 value was defined as the concentration that inhibits cell proliferation by 50% of the untreated control cells.

M. chitwoodi J2 larvae = experiment: Meloidogyne chitwoodi in vitro assays (J2 movement); assay type: in vivo; details: 45 μM, 2 days, relative to DMSO control
Experimental: (§3) M. incognita (Kofoid & White) Chitwood Race 1 (originally isolated in Maryland) was used for all experiments, and was maintained on pepper (Capsicum annuum L.) cv. PA-136 in a greenhouse as previously described^64. Infective J2 juveniles were collected as described in ref.65. The microwell dose-response experiments were carried out similarly to previously described protocols^64, 66. In brief, 100 J2s, in 10 μL of deionized water, were added to the wells of 96-well polystyrene plates, after which 190 μL of deionized water containing dissolved chemical, or DMSO alone, was added to each well. The chemicals were tested at 45 μM, and the final concentration of DMSO in each well was 0.5% (v/v). The wells were covered with a plastic adhesive strip, and the lids of the plates were sealed with parafilm. The plates were incubated at 25° C. The mobile fraction of worms was quantified by counting the number of mobile and immobile worms after 2 days of incubation, and then dividing the number of mobile worms by the total number of worms in the well. Three technical replicates were performed for each treatment, and an average value for the mobile fraction of worms was calculated across the three replicates. The percent effectiveness at inhibiting nematode movement was calculated by dividing the average value for the chemical treatment by the average value for the DMSO control, then subtracting this value from 1, and then multiplying by 100.
(§4) M. chitwoodi race 1 (the strain commonly found in the pacific northwest of the United States) was used for all experiments, and was maintained on tomato plants (Solanum lycopersicum ‘Rutgers’) as previously described^73. The M. chitwoodi in vitro assays were performed identically to the M. incognita in vitro assays (see above).

M. incognita J2 larvae = experiment: Meloidogyne incognita in vitro assays (J2 movement); assay type: in vivo; details: 45 μM, 2 days, relative to DMSO control
Experimental: as §3

Arabidopsis thaliana = Arabidopsis thaliana greening experiments; assay type: in vivo; details: 5, 15 and 45 micromolar, greening after 4 days
Experimental: Greening experiments were performed with Arabidopsis thaliana seeds of wild type Col-0; seeds were surface sterilized in bleach and plated onto 0.5×MS, 0.5% sucrose agar medium supplemented with compounds of interest at 5, 15 and 45 μM concentrations. After 4 d of stratification at 4° C., plates were transferred to a growth chamber (16 h/8 h, 150 μE/m^2) and greening recorded after 4 days. Pictures were recorded by camera (SONY a7s) with FE1.8/55 lens (FE 55 mm F1.8 ZA; SEL55F18Z). Experiments were performed in triplicate for each treatment.

[2] = test system: M. incognita infective juveniles; experiment: Meloidogyne incognita dose-response experiments (infective J2 juveniles, FIG. 2); assay type: in vivo; details: 5, 15, 45 micromolar; third day after water rinse
Experimental: M. incognita (Kofoid & White) Chitwood Race 1 (originally isolated in Maryland) was used for all experiments, and were maintained on pepper (Capsicum annuum L.) cv. PA-136 in a greenhouse as previously described^64. Infective J2 juveniles were collected as described in ref. 65. The microwell dose-response experiments were carried out similarly to previously described protocols^64, 66. In brief, 100 J2 s, in 10 μL of deionized water, were added to the wells of 96-well polystyrene plates, after which 190 μL of deionized water containing dissolved chemical, or DMSO alone, was added to each well. The final concentration of DMSO in each well was 0.5% (v/v), except for the water only control which contained no DMSO and no added chemicals. The final concentrations of the chemicals for each dose-response experiment were 5, 15, and 45 μM. The wells were covered with a plastic adhesive strip, and the lids of the plates were sealed with parafilm. The plates were incubated at 25° C. The fraction of active worms was quantified by counting the number of mobile and immobile worms after 1 and 2 days of incubation, and then dividing the number of mobile worms by the total number of worms in the well. After 2 days of incubation, the chemicals were removed and replaced with deionized water (i.e. the water rinse) and the fraction of active worms was quantified 1 day later. A failure of the worms to recover after rinsing with water is consistent with them having been killed by the chemical treatment. Four technical replicates were performed for each treatment.

C. elegans [3] = experiment: C. elegans viability at a single concentration (Table 3); assay type: in vivo; details: Caenorhabditis elegans; 100 μM
Experimental: as §2
(§5) The ability of exemplary compounds of the application to kill C. elegans at 100 μM (except for compound If which was tested at 50 μM) and to affect the mobility of M. chitwoodi at 45 μM was tested as described above for M. incognita infective juveniles. Percent mobility was measured after 2 days of chronic exposure to test compounds (Table 3).

M. chitwoodi = experiment: Root-knot nematode M. chitwoodi mobility (Table 3); assay type: in vivo, Meloidogyne chitwoodi; details: 45 μM, 2 days of chronic exposure
Experimental: as §3, §4, §5

Cc1csc2nc(-c3ccc(Br)cc3)cn12 [Compound Il, 6-(4-bromophenyl)-3-methylimidazo[2,1-b]thiazole]
Normalized root mass (relative to DMSO control) (tomato plants): 1.4 | % effectiveness at inhibiting reproduction of M. incognita (M. incognita): 8.1% | minimal effective concentration (C. elegans [1]): 25 µM and 7.3 µg/mL

Cc1cn2cc(-c3ccc(Br)cc3)nc2s1 [Compound Im, 6-(4-bromophenyl)-2-methylimidazo[2,1-b]thiazole]
Normalized root mass (relative to DMSO control) (tomato plants): 1.1 | % effectiveness at inhibiting reproduction of M. incognita (M. incognita): 1.2% | minimal effective concentration (C. elegans [1]): > 100 µM and > 29.3 µg/mL

c1ccc(-c2noc(-c3cccs3)n2)cc1 [tioxazafen, reference compound]
IC50 (HepG2 cells; 72 hours): > 100 µM | Normalized root mass (relative to DMSO control) (tomato plants): 1.1 | % effectiveness at reducing M. chitwoodi movement (M. chitwoodi J2 larvae): 40.0% | % effectiveness at reducing M. incognita movement (M. incognita J2 larvae): 55.5% | % effectiveness at inhibiting reproduction of M. incognita (M. incognita): 43.7% | times more potent at killing C. elegans than compound Ig (C. elegans [1]; ratio of minimum lethal concentrations): more than 32 times | effect on health and greening of Arabidopsis thaliana plants (phytotoxicity) (Arabidopsis thaliana): phytotoxic at 15 and 45 micromolar

O=C(NCCc1ncc(C(F)(F)F)cc1Cl)c1ccccc1C(F)(F)F [fluopyram, reference compound]
nematicidal activity on M. incognita infective juveniles [2]: most potent compound tested | effect on health and greening of Arabidopsis thaliana plants (phytotoxicity) (Arabidopsis thaliana): phytotoxic at 15 and 45 micromolar

Cc1csc2nc(-c3ccc(F)cc3)cn12 [Compound Ik, 6-(4-fluorophenyl)-3-methylimidazo[2,1-b]thiazole]
Normalized root mass (relative to DMSO control) (tomato plants): 1.0 | % effectiveness at inhibiting reproduction of M. incognita (M. incognita): 0.6% | minimal effective concentration (C. elegans [1]): 50 µM and 11.6 µg/mL

Cc1cn2cc(-c3ccc(Cl)cc3)nc2s1 [Compound Ig]
HepG2 IC50 (HepG2 cells; 72 hours, approximate ppm equivalent): > 25 ppm | IC50 (HepG2 cells; Homo sapiens, HepG2, 72 hours): > 100 µM | Normalized root mass (relative to DMSO control) (tomato plants): 1.4 | % effectiveness at reducing M. chitwoodi movement (M. chitwoodi J2 larvae): 5.7% | viability at 100 µM (C. elegans [3]): 100% | % effectiveness at reducing M. incognita movement (M. incognita J2 larvae): 0.0% | % effectiveness at inhibiting reproduction of M. incognita (M. incognita): 44.2% | minimal effective concentration (C. elegans [1]): > 24.9 µg/mL | RKN mobility (M. chitwoodi): 82.4%

Cc1cn2cc(-c3ccc(I)cc3)nc2s1 [Ih]
Normalized root mass (relative to DMSO control) (tomato plants): 1.3 | % effectiveness at reducing M. chitwoodi movement (M. chitwoodi J2 larvae): 5.6% | viability at 100 µM (C. elegans [3]): 95.4% | % effectiveness at reducing M. incognita movement (M. incognita J2 larvae): 0.0% | % effectiveness at inhibiting reproduction of M. incognita (M. incognita): 25.7% | minimal effective concentration (C. elegans [1]): > 100 µM and > 34 µg/mL | RKN mobility (M. chitwoodi): 82.5%

Cc1cn2cc(-c3ccc(F)cc3)nc2s1 [Ii]
viability at 100 µM (C. elegans [3]): 100% | % effectiveness at reducing M. incognita movement (M. incognita J2 larvae): 0.0% | minimal effective concentration (C. elegans [1]): > 100 µM and > 23.2 µg/mL | RKN mobility (M. chitwoodi): 28.9%

From US20220264883A1, “IMIDAZOTHIAZOLE COMPOUNDS AND METHODS FOR TREATING PLANT NEMATODE INFECTIONS” (The Governing Council of the University of Toronto, priority 2019, published 2022)
